Measurements taken from ChEMBL document CHEMBL1201862, “PubChem BioAssay data set” (2004).
Calls of active or inactive are those of the source.

Key:
Candida albicans [1] = experiment: C. albicans growth inhibition with fluconazole – CaCi-2 strain, Alamar Blue, dry powder, set 4, dose response (AID 488943); type: functional, organism-based
Candida albicans [2] = experiment: Candida growth reduction in fluconazole presence – CaCi-2 strain, Alamar Blue, dry powder, set 2, antifungal resistance reversal project, dose response (AID 488930); type: functional, organism-based
Candida albicans [3] = experiment: antifungal activity against resistant Candida strain – CaCi-8, fluconazole, Alamar Blue, dry powder, dose response (AID 488807); type: functional, organism-based
Candida albicans [4] = experiment: resistant Candida growth with fluconazole co-treatment – CaCi-8 strain, Alamar Blue, dry powder, set 2, dose response (AID 488909); type: functional, organism-based
[5] = molecular target: Tyrosine-protein kinase Lck (Homo sapiens, UniProt P06239); type: functional;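 further: lck was assayed as one member of a kinase panel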
Chain of Tyrosine-protein kinase Lck (P06239 whole entry): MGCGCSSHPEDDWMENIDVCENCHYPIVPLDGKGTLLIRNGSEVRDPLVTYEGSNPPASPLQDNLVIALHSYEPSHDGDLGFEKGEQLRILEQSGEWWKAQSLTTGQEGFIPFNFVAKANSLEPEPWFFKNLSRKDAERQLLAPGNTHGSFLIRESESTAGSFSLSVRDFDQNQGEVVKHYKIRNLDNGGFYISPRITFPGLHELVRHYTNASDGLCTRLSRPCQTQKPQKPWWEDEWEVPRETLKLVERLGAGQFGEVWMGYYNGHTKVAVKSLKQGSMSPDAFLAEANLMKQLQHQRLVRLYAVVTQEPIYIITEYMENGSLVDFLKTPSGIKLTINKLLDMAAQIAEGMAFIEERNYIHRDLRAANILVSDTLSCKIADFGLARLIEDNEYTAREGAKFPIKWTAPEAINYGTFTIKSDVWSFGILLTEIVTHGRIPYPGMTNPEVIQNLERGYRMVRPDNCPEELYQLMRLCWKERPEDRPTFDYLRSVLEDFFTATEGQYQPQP

Misshapen-like kinase 1 = Misshapen-like kinase 1 (Homo sapiens, UniProt Q8N4C8); type: functional;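 further: kinome panel screen with MINK as the panel member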
Chain of Misshapen-like kinase 1 (Q8N4C8 whole entry): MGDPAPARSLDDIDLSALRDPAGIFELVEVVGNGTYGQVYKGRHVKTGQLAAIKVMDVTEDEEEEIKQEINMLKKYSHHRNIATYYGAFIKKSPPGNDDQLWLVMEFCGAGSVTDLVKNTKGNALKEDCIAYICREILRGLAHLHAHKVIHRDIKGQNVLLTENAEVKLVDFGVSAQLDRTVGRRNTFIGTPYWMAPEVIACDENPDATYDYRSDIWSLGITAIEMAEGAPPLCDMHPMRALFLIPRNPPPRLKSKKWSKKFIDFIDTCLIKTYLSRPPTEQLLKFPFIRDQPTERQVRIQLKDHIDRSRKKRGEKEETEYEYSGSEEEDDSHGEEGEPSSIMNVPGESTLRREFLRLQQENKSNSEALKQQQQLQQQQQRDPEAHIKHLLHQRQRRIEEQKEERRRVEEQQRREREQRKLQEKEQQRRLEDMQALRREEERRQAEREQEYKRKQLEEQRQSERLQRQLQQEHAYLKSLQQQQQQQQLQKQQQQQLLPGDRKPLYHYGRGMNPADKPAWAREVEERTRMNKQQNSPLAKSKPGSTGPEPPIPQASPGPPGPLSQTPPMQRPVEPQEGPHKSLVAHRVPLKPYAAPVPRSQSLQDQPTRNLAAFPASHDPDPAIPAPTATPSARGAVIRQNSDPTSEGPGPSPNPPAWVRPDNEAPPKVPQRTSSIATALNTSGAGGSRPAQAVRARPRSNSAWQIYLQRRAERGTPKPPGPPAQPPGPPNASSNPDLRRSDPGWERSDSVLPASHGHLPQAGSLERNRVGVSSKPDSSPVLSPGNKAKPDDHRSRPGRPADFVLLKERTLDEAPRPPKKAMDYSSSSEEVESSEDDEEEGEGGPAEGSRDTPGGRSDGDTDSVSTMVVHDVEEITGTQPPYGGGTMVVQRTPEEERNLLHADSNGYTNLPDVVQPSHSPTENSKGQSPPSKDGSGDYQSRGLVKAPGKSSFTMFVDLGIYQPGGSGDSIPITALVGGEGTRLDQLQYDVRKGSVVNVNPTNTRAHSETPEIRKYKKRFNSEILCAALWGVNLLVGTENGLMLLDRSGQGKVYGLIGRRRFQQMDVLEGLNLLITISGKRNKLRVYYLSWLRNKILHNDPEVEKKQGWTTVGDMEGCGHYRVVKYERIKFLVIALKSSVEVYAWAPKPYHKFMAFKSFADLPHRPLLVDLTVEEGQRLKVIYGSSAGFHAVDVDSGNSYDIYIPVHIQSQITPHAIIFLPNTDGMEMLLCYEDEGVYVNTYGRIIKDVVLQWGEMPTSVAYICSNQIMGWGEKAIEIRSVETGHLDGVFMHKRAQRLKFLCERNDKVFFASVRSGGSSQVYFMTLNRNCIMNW

[6] = molecular target: Tyrosine-protein kinase BTK (Homo sapiens, UniProt Q06187); type: functional
[7] = molecular target: Serine/threonine-protein kinase TAO1 (Homo sapiens, UniProt Q7L7X3); type: functional
[8] = molecular target: Vascular endothelial growth factor receptor 2 (Homo sapiens, UniProt P35968); type: functional
[9] = molecular target: Mitogen-activated protein kinase kinase kinase kinase 4 (Homo sapiens, UniProt O95819); type: functional
[10] = molecular target: Tyrosine-protein kinase Fyn (Homo sapiens, UniProt P06241); type: functional
Chain of Tyrosine-protein kinase Fyn (P06241 whole entry): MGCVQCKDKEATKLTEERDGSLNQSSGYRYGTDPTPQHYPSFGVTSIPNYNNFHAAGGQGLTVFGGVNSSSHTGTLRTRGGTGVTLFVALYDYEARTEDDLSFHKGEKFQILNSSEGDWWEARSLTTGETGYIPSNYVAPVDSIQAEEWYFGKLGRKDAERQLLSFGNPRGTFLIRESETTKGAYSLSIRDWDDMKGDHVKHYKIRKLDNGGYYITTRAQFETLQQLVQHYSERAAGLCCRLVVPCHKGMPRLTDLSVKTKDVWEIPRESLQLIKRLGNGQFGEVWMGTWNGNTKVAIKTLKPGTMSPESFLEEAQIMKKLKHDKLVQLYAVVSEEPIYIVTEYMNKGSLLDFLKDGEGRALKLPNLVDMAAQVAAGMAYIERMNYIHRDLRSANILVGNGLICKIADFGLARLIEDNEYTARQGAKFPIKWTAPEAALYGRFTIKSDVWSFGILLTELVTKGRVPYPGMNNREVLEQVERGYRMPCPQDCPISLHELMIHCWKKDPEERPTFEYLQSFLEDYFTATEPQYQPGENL

[11] = molecular target: Macrophage colony-stimulating factor 1 receptor (Homo sapiens, UniProt P07333); type: functional;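 further: value comes from the Navigating the Kinome screening panel, CSF1R member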
Focal adhesion kinase 1 = Focal adhesion kinase 1 (Homo sapiens, UniProt Q05397); type: functional;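 further: measured as one member of a kinome panel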
Chain of Focal adhesion kinase 1 (Q05397 whole entry): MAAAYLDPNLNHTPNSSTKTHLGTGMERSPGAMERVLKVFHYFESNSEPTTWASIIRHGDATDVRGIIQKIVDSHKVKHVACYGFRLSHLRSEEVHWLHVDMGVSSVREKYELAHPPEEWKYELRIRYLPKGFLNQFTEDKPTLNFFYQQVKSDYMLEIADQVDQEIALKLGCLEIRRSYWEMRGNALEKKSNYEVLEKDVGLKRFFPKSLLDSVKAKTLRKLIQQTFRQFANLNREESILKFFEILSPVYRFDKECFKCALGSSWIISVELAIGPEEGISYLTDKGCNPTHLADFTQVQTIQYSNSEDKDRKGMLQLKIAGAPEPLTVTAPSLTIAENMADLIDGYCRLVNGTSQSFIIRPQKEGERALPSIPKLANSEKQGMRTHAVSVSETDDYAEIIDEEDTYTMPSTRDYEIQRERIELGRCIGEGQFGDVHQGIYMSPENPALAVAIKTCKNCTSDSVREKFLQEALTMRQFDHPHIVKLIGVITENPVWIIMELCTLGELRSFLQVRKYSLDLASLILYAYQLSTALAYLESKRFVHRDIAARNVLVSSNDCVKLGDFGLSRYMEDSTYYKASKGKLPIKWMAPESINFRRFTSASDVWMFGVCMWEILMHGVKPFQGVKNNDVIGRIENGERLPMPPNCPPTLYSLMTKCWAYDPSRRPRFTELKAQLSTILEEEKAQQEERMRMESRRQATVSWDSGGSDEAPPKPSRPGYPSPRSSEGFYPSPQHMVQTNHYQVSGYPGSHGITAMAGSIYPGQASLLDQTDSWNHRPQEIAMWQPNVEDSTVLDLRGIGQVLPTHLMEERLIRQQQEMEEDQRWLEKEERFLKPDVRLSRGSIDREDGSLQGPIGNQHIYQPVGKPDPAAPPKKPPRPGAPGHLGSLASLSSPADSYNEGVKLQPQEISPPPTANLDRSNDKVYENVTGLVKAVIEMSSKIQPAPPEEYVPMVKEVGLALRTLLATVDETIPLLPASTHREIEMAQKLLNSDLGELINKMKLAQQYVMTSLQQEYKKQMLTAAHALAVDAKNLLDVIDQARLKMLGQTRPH

[12] = molecular target: Insulin-like growth factor 1 receptor (Homo sapiens, UniProt P08069); experiment: Navigating the Kinome. Panel member name: IGF1R; type: functional
[13] = molecular target: T1, Apoptotic protease-activating factor 1 (Homo sapiens, UniProt O14727); experiment: SAR analysis of small molecule inhibitors of Apaf-1 in a Fluorescent assay.; type: functional; conditions: read-out: IC50_Mean
T1 sequence (O14727 whole entry): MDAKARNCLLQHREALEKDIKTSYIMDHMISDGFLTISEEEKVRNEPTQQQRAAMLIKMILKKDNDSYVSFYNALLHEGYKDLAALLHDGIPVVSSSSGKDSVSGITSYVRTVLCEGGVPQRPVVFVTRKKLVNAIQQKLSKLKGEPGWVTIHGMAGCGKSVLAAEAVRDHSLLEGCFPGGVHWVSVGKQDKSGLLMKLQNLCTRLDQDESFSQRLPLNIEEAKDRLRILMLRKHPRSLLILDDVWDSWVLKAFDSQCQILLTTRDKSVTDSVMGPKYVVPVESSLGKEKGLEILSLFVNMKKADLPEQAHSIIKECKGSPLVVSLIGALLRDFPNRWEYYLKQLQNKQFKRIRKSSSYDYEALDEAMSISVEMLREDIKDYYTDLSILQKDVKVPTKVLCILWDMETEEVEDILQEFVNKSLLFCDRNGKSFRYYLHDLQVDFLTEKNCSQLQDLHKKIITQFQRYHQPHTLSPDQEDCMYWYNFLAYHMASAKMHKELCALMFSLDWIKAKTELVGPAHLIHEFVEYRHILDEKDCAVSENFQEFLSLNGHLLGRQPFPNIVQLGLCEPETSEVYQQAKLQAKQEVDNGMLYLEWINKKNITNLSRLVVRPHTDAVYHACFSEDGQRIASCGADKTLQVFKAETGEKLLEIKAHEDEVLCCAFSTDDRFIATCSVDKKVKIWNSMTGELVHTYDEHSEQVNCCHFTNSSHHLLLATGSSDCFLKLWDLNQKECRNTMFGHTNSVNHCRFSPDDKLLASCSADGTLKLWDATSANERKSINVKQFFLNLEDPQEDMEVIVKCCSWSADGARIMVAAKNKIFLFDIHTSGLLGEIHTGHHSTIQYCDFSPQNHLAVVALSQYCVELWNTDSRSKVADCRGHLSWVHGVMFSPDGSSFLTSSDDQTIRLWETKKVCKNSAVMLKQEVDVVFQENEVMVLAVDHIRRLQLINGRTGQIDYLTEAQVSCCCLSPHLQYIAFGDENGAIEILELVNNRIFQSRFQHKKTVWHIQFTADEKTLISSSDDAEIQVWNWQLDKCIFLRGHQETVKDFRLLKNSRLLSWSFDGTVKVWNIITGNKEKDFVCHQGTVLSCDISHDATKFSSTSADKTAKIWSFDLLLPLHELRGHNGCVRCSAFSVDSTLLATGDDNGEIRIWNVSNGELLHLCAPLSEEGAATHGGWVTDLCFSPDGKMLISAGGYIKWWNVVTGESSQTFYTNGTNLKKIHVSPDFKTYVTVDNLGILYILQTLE

[14] = molecular target: Multidrug resistance protein CDR1 (Candida albicans, UniProt P43071); experiment: inhibition of Nile Red efflux via Candida CDR1 – S. cerevisiae AD1-8u, singleplex, Cherry Pick1 hits, dose response (AID 588606); type: functional
Chain of Multidrug resistance protein CDR1 (P43071 whole entry, looked up): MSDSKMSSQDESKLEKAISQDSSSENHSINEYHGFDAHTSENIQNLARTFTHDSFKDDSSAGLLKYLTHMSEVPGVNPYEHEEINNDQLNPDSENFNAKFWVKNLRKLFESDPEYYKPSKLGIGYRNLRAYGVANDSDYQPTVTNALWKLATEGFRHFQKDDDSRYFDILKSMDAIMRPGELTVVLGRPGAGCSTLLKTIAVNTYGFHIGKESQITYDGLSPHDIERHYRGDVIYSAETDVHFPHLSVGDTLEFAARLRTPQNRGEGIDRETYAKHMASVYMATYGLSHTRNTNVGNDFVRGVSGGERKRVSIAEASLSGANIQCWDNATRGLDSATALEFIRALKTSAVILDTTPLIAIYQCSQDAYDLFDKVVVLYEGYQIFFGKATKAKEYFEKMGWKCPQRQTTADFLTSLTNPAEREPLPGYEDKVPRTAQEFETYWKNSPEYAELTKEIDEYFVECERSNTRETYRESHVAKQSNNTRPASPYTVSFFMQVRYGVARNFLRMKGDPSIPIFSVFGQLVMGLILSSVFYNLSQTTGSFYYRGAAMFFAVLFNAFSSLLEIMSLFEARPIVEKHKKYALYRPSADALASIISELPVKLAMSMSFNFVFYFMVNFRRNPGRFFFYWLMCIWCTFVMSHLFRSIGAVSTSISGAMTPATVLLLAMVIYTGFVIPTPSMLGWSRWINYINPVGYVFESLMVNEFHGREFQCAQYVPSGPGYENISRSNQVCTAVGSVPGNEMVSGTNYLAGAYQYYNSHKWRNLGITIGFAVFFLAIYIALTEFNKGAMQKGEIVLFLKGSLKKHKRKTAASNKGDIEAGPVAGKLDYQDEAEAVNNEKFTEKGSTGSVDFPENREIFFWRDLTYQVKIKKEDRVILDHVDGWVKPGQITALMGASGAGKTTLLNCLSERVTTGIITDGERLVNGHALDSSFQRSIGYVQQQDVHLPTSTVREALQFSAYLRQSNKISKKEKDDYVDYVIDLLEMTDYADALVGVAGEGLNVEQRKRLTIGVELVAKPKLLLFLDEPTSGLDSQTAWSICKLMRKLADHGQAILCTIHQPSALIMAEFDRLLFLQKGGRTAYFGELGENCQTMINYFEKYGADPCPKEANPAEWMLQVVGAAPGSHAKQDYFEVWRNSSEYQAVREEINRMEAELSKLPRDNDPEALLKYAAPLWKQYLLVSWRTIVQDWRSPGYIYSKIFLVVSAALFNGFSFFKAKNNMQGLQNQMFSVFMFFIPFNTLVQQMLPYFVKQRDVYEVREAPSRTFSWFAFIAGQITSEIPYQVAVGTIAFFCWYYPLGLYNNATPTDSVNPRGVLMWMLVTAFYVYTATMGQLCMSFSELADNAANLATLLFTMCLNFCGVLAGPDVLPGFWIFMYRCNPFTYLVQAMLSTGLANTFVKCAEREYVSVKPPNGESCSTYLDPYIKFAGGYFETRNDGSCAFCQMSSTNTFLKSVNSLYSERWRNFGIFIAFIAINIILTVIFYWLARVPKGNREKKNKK

[15] = test system: Streptococcus sp. 'group A'; experiment: Streptococcus pyogenes SK(-)GAS viability under kanamycin – luminescence, BacTiterGlo, confirmation, counter-screen for streptokinase expression inhibitor project, dose response (AID 1900); type: functional, organism-based
BJ [16] = experiment: cells; type: functional, cell-based; conditions: Homo sapiens
INS1 = experiment: INS-1E survival protection against cytokine death – cell-based, luminescence, retest, dose response (AID 449756); type: functional; conditions: Rattus norvegicus;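 further: cell death triggered by IL-1 beta plus TNF-alpha plus IFN-gamma mixture; protective hits raise ATP signal compared with cytokine alone wells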
Streptococcus = experiment: GAS UMAA2166 growth inhibition – luminescence, BacTiterGlo, counter-screen for streptokinase expression inhibitor project, dose response (AID 1915); type: functional, organism-based;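 further: potency for reduction of bacterial viability or growth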
BJ [17] = experiment: growth inhibition of engineered Ras-driven BJ cells – cell-based, alamar blue fluorescence, cherrypicked samples, dose response (AID 2631); type: functional; conditions: Homo sapiens;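 further: confirmatory dose-response assay in RAS-dependent BJ fibroblasts engineered with TERT, LT and ST, with cytotoxicity read by fluorescence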
cells [18] = type: functional, cell-based
BJ [19] = experiment: BJ-TERT fibroblast viability loss – cell-based, RAS-independent, luminescence, dose response (AID 1933); type: functional; conditions: Homo sapiens
cells [20] = type: functional, cell-based; remark: listed apart in the source
Streptokinase A = molecular target: T2, Streptokinase A (Streptococcus pyogenes serotype M1, UniProt P10520); experiment: viability-normalized secreted streptokinase activity reduction – plasminogen activation absorbance, OD405, dose response (AID 1914); type: functional, Streptococcus pyogenes M1 GAS;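 further: secreted streptokinase activity via plasminogen activation per viability signal from cell pellet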
T2 sequence (P10520 whole entry): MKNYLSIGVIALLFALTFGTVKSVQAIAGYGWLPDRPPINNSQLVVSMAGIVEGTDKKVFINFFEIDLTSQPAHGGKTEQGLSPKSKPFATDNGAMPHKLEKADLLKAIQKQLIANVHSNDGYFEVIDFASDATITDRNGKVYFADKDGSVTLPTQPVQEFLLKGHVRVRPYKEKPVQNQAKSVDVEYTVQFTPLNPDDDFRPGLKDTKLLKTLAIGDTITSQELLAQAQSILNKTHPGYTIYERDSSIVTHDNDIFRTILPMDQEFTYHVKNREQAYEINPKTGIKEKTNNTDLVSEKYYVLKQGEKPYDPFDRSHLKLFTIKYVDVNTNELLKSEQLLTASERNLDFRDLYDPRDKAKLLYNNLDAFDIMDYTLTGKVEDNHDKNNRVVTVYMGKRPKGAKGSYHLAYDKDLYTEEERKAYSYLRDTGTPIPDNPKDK

BJ [21] = experiment: BJ-TERT-LT-ST fibroblast viability loss – cell-based, RAS-independent, luminescence, dose response (AID 1935); type: functional; conditions: Homo sapiens;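 further: BJ fibroblasts immortalized with TERT plus LT and ST oncogenes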
[22] = DRD fibroblast viability loss – cell-based, non-viral oncogenic, luminescence, dose response (AID 1934); type: functional; conditions: Homo sapiens

Question: For `O=C(c1ccc(Cl)cc1)N1CCN(c2ccccn2)CC1`, which AC50 (Candida albicans [1]) is on record?
Answer: 24.5 µM (active)

Question: And the AC50 (Candida albicans [2])?
Answer: 12 µM (active)

Question: What about the AC50 (Candida albicans [3]) of the same molecule?
Answer: 0.64 µM (active)

Question: And the AC50 (Candida albicans [4])?
Answer: 28.1 µM (active)

Question: For `O=C(Cc1ccccc1)Nc1cccc(-c2nc3sccn3c2-c2ccnc(Nc3ccccc3Cl)n2)c1`, which Ki [5] is on record?
Answer: > 6.31 µM (inactive)

Question: And the Ki (Misshapen-like kinase 1)?
Answer: > 5.01 µM (inactive)

Question: What about the Ki [6] of the same molecule?
Answer: > 6.31 µM (inactive)

Question: And the Ki [7]?
Answer: > 6.31 µM (inactive)

Question: What about the Ki [8] of the same molecule?
Answer: 0.501 µM (active)

Question: And the Ki [9]?
Answer: > 5.01 µM (inactive)

Question: And the Ki [10]?
Answer: > 6.31 µM (inactive)

Question: What about the Ki [11] of the same molecule?
Answer: 0.631 µM (active)

Question: And the Ki (Focal adhesion kinase 1)?
Answer: 3.16 µM (active)

Question: And the Ki [12]?
Answer: 1.26 µM (active)

Question: For `Cc1nc2cc(-c3nc4cc(NC(=O)c5cccs5)ccc4[nH]3)ccc2[nH]1`, which IC50 [13] is on record?
Answer: 41.2 µM (active)

Question: With `COc1ccc(-c2sc3cc4c(cc3c2-c2ccc(OCCN3CCCCC3)cc2)OCO4)cc1` as the molecule, how does the EC50 [14] read?
Answer: 0.062 µM (active)

Question: Which EC50 [15] does the source give for `CCCc1sc(N/N=C/c2ccccn2)nc1-c1ccc(F)cc1` here?
Answer: 7.2 µM (active)

Question: What about the EC50 (BJ [16]) of the same molecule?
Answer: 10.7 µM (active)

Question: And the AC50 (INS1)?
Answer: 0.904 µM (active)

Question: What about the EC50 (Streptococcus) of the same molecule?
Answer: 10.8 µM (active)

Question: What about the EC50 (BJ [17]) of the same molecule?
Answer: 19.4 µM (active)

Question: And the EC50 (cells [18])?
Answer: 38.1 µM (active)

Question: What about the EC50 (BJ [19]) of the same molecule?
Answer: 6.54 µM (active)

Question: What about the EC50 (cells [20]) of the same molecule?
Answer: 74.4 µM (active)

Question: What about the EC50 (Streptokinase A) of the same molecule?
Answer: > 150 µM (not active)

Question: What about the EC50 (BJ [21]) of the same molecule?
Answer: 7.71 µM (active)

Question: And the EC50 [22]?
Answer: 19.9 µM (active)
